Measurements published in ChEMBL document CHEMBL1131716, “Heterocycle-peptide hybrid compounds. Aminotriazole-containing agonists of the thrombin receptor (PAR-1)” (Bioorg Med Chem Lett, 1999).
pIC50: −log10 of the molar value. Where a SMILES comes first, the peptide text is derived from it. [ ]: non-standard residue; d: D form. The star is where a group is joined. Cha = N[C@@H](CC1CCCCC1)C(=O)O; Nicotinoyl = O=C(c1cccnc1)*; 3Abz = Nc1cccc(C(=O)O)c1; 4Abz = Nc1ccc(C(=O)O)cc1; βAla = NCCC(=O)O

Assays:
[1] = target: T1, Proteinase-activated receptor 1 (Homo sapiens, UniProt P25116); test: Inhibition of [3H]S-(p-F-Phe)-Har-L-Har-KY-NH2 binding to Thrombin receptor 1 (PAR-1) on membranes from CHRF cells; assay type: cell membranes
T1 sequence (P25116 whole entry): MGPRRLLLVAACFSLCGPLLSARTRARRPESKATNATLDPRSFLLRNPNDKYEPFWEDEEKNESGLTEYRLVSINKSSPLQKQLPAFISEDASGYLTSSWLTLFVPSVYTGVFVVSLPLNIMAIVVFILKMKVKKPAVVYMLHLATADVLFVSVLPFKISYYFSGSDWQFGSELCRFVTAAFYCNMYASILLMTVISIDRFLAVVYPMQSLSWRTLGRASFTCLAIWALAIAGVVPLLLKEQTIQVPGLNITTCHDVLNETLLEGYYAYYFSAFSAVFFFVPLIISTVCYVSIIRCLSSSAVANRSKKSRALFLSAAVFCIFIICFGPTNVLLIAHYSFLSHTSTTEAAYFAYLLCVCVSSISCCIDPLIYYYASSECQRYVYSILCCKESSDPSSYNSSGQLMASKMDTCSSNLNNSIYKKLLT

[2] = target: T1, Proteinase-activated receptor 1; test: Inhibition of [3H]S-(p-F-Phe)-Har-L-Har-KY-NH2 binding to thrombin receptor (PAR-1) on membranes from CHRF cells; assay type: cell membranes
[3] = target: T2, Proteinase-activated receptor 1 (Homo sapiens) (UniProt P25116); test: Evaluated for activation of human platelet aggregation (gel-filtered platelets) induced by alpha thrombin at 50 uM; assay type: functional
T2 sequence (whole entry): T1 sequence (P25116 whole entry)

Homo sapiens = species on record: Homo sapiens; test: Antagonist activity by using human gel-filtered platelet aggregation; assay type: functional

| Compound | pIC50 [2] | percent activation of platelet aggregation [3] | further results |
| --- | --- | --- | --- |
| N=C(N)NCCC[C@H](NC(=O)[C@H](CC1CCCCC1)NC(=O)c1n[nH]c(NC(=O)/C=C/c2cccc(Cl)c2)n1)C(=O)N[C@@H](Cc1ccccc1)C(N)=O | – | – | pIC50 [1]: 4.82 |
| N=C(N)NCCC[C@H](NC(=O)[C@H](CC1CCCCC1)NC(=O)c1ccc(N)nc1)C(=O)N[C@@H](Cc1ccccc1)C(N)=O | 5.70 | – | – |
| N=C(N)NCCC[C@H](NC(=O)[C@H](CC1CCCCC1)NC(=O)C1=COc2ccccc2O1)C(=O)N[C@@H](Cc1ccccc1)C(N)=O | 4.80 | < 20% | – |
| N=C(N)NCCC[C@H](NC(=O)[C@H](CC1CCCCC1)NC(=O)c1n[nH]c(NC(=O)/C=C/c2ccc(C(F)(F)F)cc2)n1)C(=O)N[C@@H](Cc1ccccc1)C(N)=O | – | – | pIC50 [1]: 4.52 |
| N=C(N)NCCC[C@H](NC(=O)[C@H](CC1CCCCC1)NC(=O)/C=C/c1ccccc1)C(=O)N[C@@H](Cc1ccccc1)C(N)=O | 5.30 | 20% | – |
| N=C(N)NCCC[C@H](NC(=O)[C@H](Cc1ccccc1)NC(=O)c1ccc2[nH]cnc2c1)C(=O)N[C@@H](Cc1ccccc1)C(N)=O | 5.40 | – | – |
| N=C(N)NCCC[C@H](NC(=O)[C@H](CC1CCCCC1)NC(=O)c1cc2ccccc2o1)C(=O)N[C@@H](Cc1ccccc1)C(N)=O | – | – | pIC50 [1]: 5.52 |
| C[C@H](NC(=O)[C@H](CC1CCCCC1)NC(=O)c1n[nH]c(N)n1)C(=O)N[C@@H](Cc1ccccc1)C(N)=O | 4.74 | < 20% | – |
| N=C(N)NCCC[C@H](NC(=O)[C@H](CC1CCCCC1)NC(=O)c1cnc(Cl)c(Cl)c1)C(=O)N[C@@H](Cc1ccccc1)C(N)=O | – | 32% | pIC50 [1]: 5.59 |
| N=C(N)NCCC[C@H](NC(=O)[C@H](CC1CCCCC1)NC(=O)c1nnc(N)[nH]1)C(=O)N[C@@H](Cc1cccs1)C(N)=O | 5.40 | – | – |
| N=C(N)NCCC[C@H](NC(=O)[C@H](CC1CCCCC1)NC(=O)c1n[nH]c(NC(=O)/C=C/c2cccc([N+](=O)[O-])c2)n1)C(=O)N[C@@H](Cc1ccccc1)C(N)=O | – | – | pIC50 [1]: 5.07 |
| N=C(N)NCCC[C@H](NC(=O)[C@H](CC1CCCCC1)NC(=O)c1ccc(N)cc1)C(=O)N[C@@H](Cc1ccccc1)C(N)=O (H-[4Abz][Cha]RF-NH2) | 5.54 | 40% | – |
| N=C(N)NCCC[C@H](NC(=O)[C@H](CC1CCCCC1)NC(=O)c1nccnc1N)C(=O)N[C@@H](Cc1ccccc1)C(N)=O | 5.07 | – | – |
| N=C(N)NCCC[C@H](NC(=O)[C@H](CC1CCCCC1)NC(=O)c1cnc2ccccc2n1)C(=O)N[C@@H](Cc1ccccc1)C(N)=O | 5.51 | – | – |
| N=C(N)NCCC[C@H](NC(=O)[C@H](CC1CCCCC1)NC(=O)/C=C/c1cccnc1)C(=O)N[C@@H](Cc1ccccc1)C(N)=O | 5.26 | – | – |
| NCCC(=O)N[C@@H](CC1CCCCC1)C(=O)N[C@@H](CCCN=C(N)N)C(=O)N[C@@H](Cc1ccccc1)C(N)=O (H-[βAla][Cha]RF-NH2) | – | 30% | – |
| N=C(N)NCCC[C@H](NC(=O)[C@H](CC1CCCCC1)NC(=O)c1ccccn1)C(=O)N[C@@H](Cc1ccccc1)C(N)=O | 5.36 | – | – |
| N=C(N)NCCC[C@H](NC(=O)[C@H](CC1CCCCC1)NC(=O)c1cccnc1Cl)C(=O)N[C@@H](Cc1ccccc1)C(N)=O | 5.12 | < 20% | – |
| N=C(N)NCCC[C@H](NC(=O)[C@H](CC1CCCCC1)NC(=O)c1ccncc1)C(=O)N[C@@H](Cc1ccccc1)C(N)=O | 5.15 | 26% | – |
| N=C(N)NCCC[C@H](NC(=O)[C@H](CC1CCCCC1)NC(=O)c1cccc(N)c1)C(=O)N[C@@H](Cc1ccccc1)C(N)=O (H-[3Abz][Cha]RF-NH2) | 5.70 | – | – |
| N=C(N)NCCC[C@H](NC(=O)[C@H](CC1CCCCC1)NC(=O)CCN)C(=O)N[C@@H](Cc1ccccc1)C(N)=O (H-[βAla][Cha]RF-NH2) | 5.05 | – | – |
| N=C(N)NCCC[C@H](NC(=O)[C@H](CC1CCCCC1)NC(=O)c1n[nH]c(NC(=O)/C=C/c2cccs2)n1)C(=O)N[C@@H](Cc1ccccc1)C(N)=O | 5.36 | – | – |
| N=C(N)NCCC[C@H](NC(=O)[C@H](CC1CCCCC1)NC(=O)c1n[nH]c(NC(=O)/C=C/c2ccc(F)cc2)n1)C(=O)N[C@@H](Cc1ccccc1)C(N)=O | – | – | pIC50 [1]: 5.92 |
| N=C(N)NCCC[C@H](NC(=O)[C@H](CC1CCCCC1)NC(=O)c1csnn1)C(=O)N[C@@H](Cc1ccccc1)C(N)=O | 5.03 | – | – |

| Compound | pIC50 [2] | percent activation of platelet aggregation [3] | further results |
| --- | --- | --- | --- |
| N=C(N)NCCC[C@H](NC(=O)[C@H](CC1CCCCC1)NC(=O)c1n[nH]c(NC(=O)/C(F)=C/c2ccccc2)n1)C(=O)N[C@@H](Cc1ccccc1)C(N)=O | – | – | pIC50 (Homo sapiens): 4.55 |
| N=C(N)NCCC[C@H](NC(=O)[C@H](CC1CCCCC1)NC(=O)c1n[nH]c(NC(=O)/C=C/c2ccccc2[N+](=O)[O-])n1)C(=O)N[C@@H](Cc1ccccc1)C(N)=O | 5.80 | – | – |
| N=C(N)NCCC[C@H](NC(=O)[C@H](CC1CCCCC1)NC(=O)c1n[nH]c(NC(=O)/C=C/c2ccc(Cl)cc2)n1)C(=O)N[C@@H](Cc1ccccc1)C(N)=O | – | – | pIC50 [1]: 5.85 |
| C[C@H](NC(=O)c1n[nH]c(N)n1)C(=O)N[C@@H](CCCN=C(N)N)C(=O)N[C@@H](Cc1ccccc1)C(N)=O | 4.34 | < 20% | – |
| N=C(N)NCCC[C@H](NC(=O)[C@H](CC1CCCCC1)NC(=O)c1ccc[nH]1)C(=O)N[C@@H](Cc1ccccc1)C(N)=O | 5.00 | 55% | – |
| NCCCC[C@H](NC(=O)[C@H](CC1CCCCC1)NC(=O)c1n[nH]c(N)n1)C(=O)N[C@@H](Cc1ccccc1)C(N)=O | 5.27 | – | – |
| COc1ccc(/C=C/C(=O)Nc2n[nH]c(C(=O)N[C@@H](CC3CCCCC3)C(=O)N[C@@H](CCCN=C(N)N)C(=O)N[C@@H](Cc3ccccc3)C(N)=O)n2)cc1 | – | – | pIC50 [1]: 5.40 |
| CC(C)C[C@H](NC(=O)[C@H](CC(C)C)NC(=O)[C@H](Cc1ccccc1)NC(=O)[C@@H](N)CO)C(=O)N[C@@H](CCCN=C(N)N)C(=O)N[C@@H](CC(N)=O)C(N)=O | 6.26 | – | – |
| N=C(N)NCCC[C@H](NC(=O)[C@H](CC1CCCCC1)NC(=O)C1C=CC=NC1=O)C(=O)N[C@@H](Cc1ccccc1)C(N)=O (stereo partly specified) | 4.80 | 26% | – |
| N=C(N)NCCC[C@H](NC(=O)[C@H](CC1CCCCC1)NC(=O)c1ccc(-c2ccccc2)cc1)C(=O)N[C@@H](Cc1ccccc1)C(N)=O | 4.89 | 56% | – |
| N=C(N)NCCC[C@H](NC(=O)[C@H](CC1CCCCC1)NC(=O)c1ccoc1)C(=O)N[C@@H](Cc1ccccc1)C(N)=O | 4.60 | 38% | – |
| N=C(N)NCCC[C@H](NC(=O)[C@H](CC1CCCCC1)NC(=O)c1ccc(Cl)nc1)C(=O)N[C@@H](Cc1ccccc1)C(N)=O | 5.62 | – | – |
| N=C(N)NCCC[C@H](NC(=O)[C@H](CC1CCCCC1)NC(=O)c1cccnc1)C(=O)N[C@@H](Cc1ccccc1)C(N)=O (Nicotinoyl-[Cha]-Arg-Phe-NH2) | 5.89 | – | – |
| N=C(N)NCCC[C@H](NC(=O)[C@H](CC1CCCCC1)NC(=O)c1cc(=O)c2ccccc2o1)C(=O)N[C@@H](Cc1ccccc1)C(N)=O | 5.80 | – | – |
| N=C(N)NCCC[C@H](NC(=O)[C@H](CC1CCCCC1)NC(=O)c1n[nH]c(N)n1)C(=O)N[C@@H](Cc1ccccc1)C(N)=O | 5.72 | – | – |
| N=C(N)NCCC[C@H](NC(=O)[C@H](CC1CCCCC1)NC(=O)c1cccnc1N)C(=O)N[C@@H](Cc1ccccc1)C(N)=O | 5.64 | – | – |
| N=C(N)NCCC[C@H](NC(=O)[C@H](CC1CCCCC1)NC(=O)c1n[nH]c(N)n1)C(=O)N[C@@H](Cc1c[nH]cn1)C(N)=O | 4.57 | < 20% | – |
| N=C(N)NCCC[C@H](NC(=O)[C@H](CC1CCCCC1)NC(=O)c1n[nH]c(NC(=O)/C=C/c2c[nH]c3ccccc23)n1)C(=O)N[C@@H](Cc1ccccc1)C(N)=O | 4.00 | – | – |
| N=C(N)NCCC[C@H](NC(=O)[C@H](CC1CCCCC1)NC(=O)c1cc2ccccc2s1)C(=O)N[C@@H](Cc1ccccc1)C(N)=O | 5.64 | – | – |
| N=C(N)NCCC[C@H](NC(=O)[C@H](CC1CCCCC1)NC(=O)c1ccc2c(c1)-c1ccccc1-2)C(=O)N[C@@H](Cc1ccccc1)C(N)=O | 5.62 | – | – |
| N=C(N)NCCC[C@H](NC(=O)[C@H](CC1CCCCC1)NC(=O)c1cc2ccccc2[nH]1)C(=O)N[C@@H](Cc1ccccc1)C(N)=O | 4.25 | 21% | – |
| N=C(N)NCCC[C@H](NC(=O)[C@H](Cc1ccccc1)NC(=O)c1nnc(N)[nH]1)C(=O)N[C@@H](Cc1ccccc1)C(N)=O | 5.70 | – | – |
| N=C(N)NCCC[C@H](NC(=O)[C@H](CC1CCCCC1)NC(=O)c1nnc(N)[nH]1)C(=O)N[C@H](C(N)=O)c1ccccc1 | 5.15 | – | – |
